Source: publication PMC5721475, “Characterization of sulfhydryl oxidase from Aspergillus tubingensis” (BMC Biochemistry, 2017)

Molecular target: T1, AtSOX (secreted sulfhydryl oxidase from Aspergillus tubingensis) (Aspergillus tubingensis, UniProt Z9JMF6K8Z8)
T1 construct: native secreted enzyme purified from culture medium; signal peptide removed; predicted N-terminus SSIPQ
T1 sequence (Z9JMF6K8Z8 20-393): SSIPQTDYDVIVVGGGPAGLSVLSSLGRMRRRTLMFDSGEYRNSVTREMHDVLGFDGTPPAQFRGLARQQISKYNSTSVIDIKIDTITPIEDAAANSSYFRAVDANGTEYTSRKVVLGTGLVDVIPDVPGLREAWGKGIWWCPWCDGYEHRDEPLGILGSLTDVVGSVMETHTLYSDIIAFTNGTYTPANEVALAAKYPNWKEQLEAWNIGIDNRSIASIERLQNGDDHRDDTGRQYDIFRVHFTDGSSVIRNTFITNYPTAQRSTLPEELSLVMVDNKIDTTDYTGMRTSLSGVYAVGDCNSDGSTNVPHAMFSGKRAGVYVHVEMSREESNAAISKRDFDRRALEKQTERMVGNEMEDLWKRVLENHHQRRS
Test: UV-vis and fluorescence spectra; release of flavin by thermal denaturation
Format: binding
Details: non-covalently bound, copurified; 20 mM Tris-HCl pH 7.5, 20 °C

SMILES: Cc1cc2nc3c(=O)[nH]c(=O)nc-3n(C[C@H](O)[C@H](O)[C@H](O)COP(=O)(O)OP(=O)(O)OC[C@H]3O[C@@H](n4cnc5c(N)ncnc54)[C@H](O)[C@@H]3O)c2cc1C [FAD, flavin adenine dinucleotide]
- UV-vis and fluorescence spectra; release of flavin by thermal denaturation: The enzyme had a non-covalently bound FAD as a cofactor
